Type in all cases: cell-based, human
Assay [1] relates to uterine fibroid leiomyoma cells. The assay is described as follows: DNA content assay of growing leiomyoma cells treated with FGI agents (Example 1, 4 days). As to conditions: for IC50: read-out: IC50 (= 80 ng) Concentration; for NG0 (= 32 ng) Concentration (no net growth): concentration giving the time=0 DNA content of 32 ng/well. An excerpt: A DNA assay was used for determining the effect of potential FGI agents on the growth of uterine fibroid leiomyoma cells. The assay determined the effect of various concentrations of an individual FGI agent on the accumulation of DNA in an actively growing population of uterine fibroid leiomyoma cells. The accumulation of DNA in treated cell populations relative to untreated controls was an indication the efficacy of the FGI agent for inhibiting fibroid cell proliferation.
(§1) Method: Fibroid tissue was obtained from patients undergoing hysterectomy for symptomatic leiomyomata, and leiomyoma cells were isolated from the tissue using standard techniques. Leiomyoma cells in 5% fetal calf serum were plated at 22,000 cells/well in 12-well plate. Cells were allowed to acclimate and grow for 24 hours before the start of the experiment. At time=0, the DNA content of the wells was determined (32+/−0.6 ng/well), and the cells were treated with different concentrations of the FGI agents as shown in FIG. 3A in 5% fetal calf serum. Controls received fetal calf serum alone. After treatment at time=4 days, the DNA content of each well was determined using standard methods. All points were determined in triplicate and are the mean +/− standard error.
The significance of the IC50 point was that it represented an estimated point relative to which a substrate may in part be gauged as an effective FGI agent. The NG0 (no net growth) was the point on the graph corresponding to the time=0 or starting DNA content of the wells.

For assay [2] the test system is unchanged. The assay is described as follows: Growth of leiomyoma cells with low added concentrations over background tocopherols (Example 2). The note with it: added concentrations ranging from 1 to 5 μM over background tocopherols (about 10 μM); 4 days. How it is done: as §1
Method: See Example 1 above generally. Vitamin C, an antioxidant that is not an identified potential FGI agent, was used as an experimental substrate control.
Results: The results are illustrated in FIGS. 4A and 4B. The DNA concentration of controls at time=4 days was 99+/−0.2 ng/well (the “0” concentration in FIGS. 4A & 4B). Growth of uterine fibroid cells clearly occurred in the presence of a background concentration of tocopherols. […] However, upon the addition of 10 μM over back ground tocopherol treated wells began to show detectable inhibition of the growth of uterine fibroid cell populations.

Assay [3] has the same test system. The assay is described as follows: DNA content experiment similar to Example 1, GF109203x versus α-tocopherol succinate, 6 days (FIGS. 5A & 5B). As to conditions: comparison of FIG. 5A with 5B; DNA content at time=6 days. How it is done:
as §1
Clearly from Examples 1 & 2, tocopherol related substrates are potential FGI agents. This was expected because of tocopherol's effect on the PKC pathway. However, non-tocopherol related substrates that can appropriate appropriately effect the PKC pathway were also identified as potential FGI agents. Therefore, GF109203x, a protein kinase C inhibitor, was tested in an experiment similar to that of Example 1 to determine the efficacy of a non-tocopherol related, identified potential FGI agent to inhibit fibroid leiomyoma cell proliferation. Here, the DNA content of treated wells was determined at time=6 days. […]

Assay [4] has the same test system. The experiment in a line: Separate DNA content experiment under conditions similar to Example 1, read at 6 days (FIG. 3B). The note with it: DNA content determined at time=6 days. As for the experimental part:
as §1
FIG. 3B is a graph of the results for α-tocopherol succinate from a separate experiment under conditions similar to Example 1. Here, the DNA content of treated wells was determined at time=6 days. The area under the horizontal line indicates the concentration at which net cell death occurred in this experiment (˜38 μM).

The mark [5] stands for this setting: Homo sapiens, 96 h, increase in DNA content 50% of that of control wells, time=4 days, 5% fetal calf serum, N/A = condition not attained.
The mark [6] stands for this setting: time=4 days, 5% fetal calf serum, N/A = condition not attained.
Setting [7] is: increase in DNA content 50% of that of control wells, time=4 days, 5% fetal calf serum, N/A = condition not attained.

Where two headings read alike, the source gives them in different places.

For `Cc1c(C)c2c(c(C)c1O)CCC(C)(COc1ccc(CC3SC(=O)NC3=O)cc1)O2` (centres unmarked) [Troglitazone], the IC50 in assay [1] (setting [5]) was 12 µM. Besides, in assay [1] (setting [6]), the “NG0 (= 32 ng) Concentration (no net growth)” value (shortened to “NG0 … (no net growth)”) turned out to be 50 µM.

In the case of `Cc1cc(O)c(C)c2c1O[C@](C)(CCC[C@H](C)CCC[C@H](C)CCCC(C)C)CC2` [β-Tocopherol], in assay [2], the “growth of uterine fibroid cell populations at low added concentrations” value (“growth … at low added concentrations” below) is recorded as “substantially uninhibited”.

Consider `CN(C)CCCn1cc(C2=C(c3c[nH]c4ccccc34)C(=O)NC2=O)c2ccccc21` [GF109203x], for which the “efficiency at inhibiting fibroid leiomyoma cell proliferation relative to α-tocopherol succinate” value in assay [3] is roughly 5 time.

`CCc1ccc(CCOc2ccc(CC3SC(=O)NC3=O)cc2)nc1` (centres unmarked) [Pioglitazone]: the IC50 in assay [1] (setting [5]) stood at 40 µM. Further, the “NG0 … (no net growth)” value in assay [1] (setting [6]) stood at 88 µM.

As to `Cc1c(C)c2c(c(C)c1OC(=O)CCC(=O)O)CC[C@@](C)(CCC[C@H](C)CCC[C@H](C)CCCC(C)C)O2` [α-Tocopherol succinate], in assay [1] (setting [6]), the “NG0 … (no net growth)” value is 38 µM. For the same molecule, the IC50 in assay [1] (setting [7]) is 22 µM. Besides, in assay [2], the “growth … at low added concentrations” value is listed as “substantially uninhibited”. The “concentration at which net cell death occurred” value in assay [4] is roughly 38 µM.

As for `Cc1c(C)c2c(c(C)c1O)CC[C@@](C)(CCC[C@H](C)CCC[C@H](C)CCCC(C)C)O2` [α-Tocopherol], the IC50 in assay [1] (setting [7]) turned out to be 27 µM. In addition, the “growth … at low added concentrations” value in assay [2] is listed as “substantially uninhibited”.

For `CN(CCOc1ccc(CC2SC(=O)NC2=O)cc1)c1ccccn1` (centres unmarked) [Rosiglitazone], in assay [1] (Homo sapiens, 96 h), the IC50 came to 40 µM. The “NG0 … (no net growth)” value in assay [1] (setting [6]) worked out at 90 µM.
